Data from patent US9249131B2, “Modulators of ATP-binding cassette transporters” (Vertex Pharmaceuticals Incorporated, priority 2003, dated 2016).

Target: T1, ΔF508-CFTR (Homo sapiens, UniProt P13569, DEL508-508)
T1 construct: expressed in transfected cells; host or cells: NIH3T3 mouse fibroblasts stably expressing ΔF508-CFTR for the optical, whole-cell and single-channel assays; Fisher rat epithelial (FRT) cells for Ussing chamber follow-up
Test: Assays for ΔF508-CFTR correction and potentiator properties (membrane potential optical and electrophysiological methods)
Type: cell-based
Conditions: CFTR modulation; for % Activity: % Efficacy; for EC50: tested using the above methods
How it was run: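 NIH3T3 mouse fibroblasts stably expressing ΔF508-CFTR were used, with membrane potential read by DiSBAC2(3)/CC2-DMPE FRET on VIPR. Correctors: 16 h compound exposure at 37 °C, then activation with forskolin plus genistein in Cl⁻-free medium. Potentiators: cells held 24 h at 27 °C, compound added in Cl⁻-free medium, 2-10 μM forskolin 22 s later (final Cl⁻ 28 mM).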

T1 sequence (P13569 with tags, fused parts or gaps DEL508-508): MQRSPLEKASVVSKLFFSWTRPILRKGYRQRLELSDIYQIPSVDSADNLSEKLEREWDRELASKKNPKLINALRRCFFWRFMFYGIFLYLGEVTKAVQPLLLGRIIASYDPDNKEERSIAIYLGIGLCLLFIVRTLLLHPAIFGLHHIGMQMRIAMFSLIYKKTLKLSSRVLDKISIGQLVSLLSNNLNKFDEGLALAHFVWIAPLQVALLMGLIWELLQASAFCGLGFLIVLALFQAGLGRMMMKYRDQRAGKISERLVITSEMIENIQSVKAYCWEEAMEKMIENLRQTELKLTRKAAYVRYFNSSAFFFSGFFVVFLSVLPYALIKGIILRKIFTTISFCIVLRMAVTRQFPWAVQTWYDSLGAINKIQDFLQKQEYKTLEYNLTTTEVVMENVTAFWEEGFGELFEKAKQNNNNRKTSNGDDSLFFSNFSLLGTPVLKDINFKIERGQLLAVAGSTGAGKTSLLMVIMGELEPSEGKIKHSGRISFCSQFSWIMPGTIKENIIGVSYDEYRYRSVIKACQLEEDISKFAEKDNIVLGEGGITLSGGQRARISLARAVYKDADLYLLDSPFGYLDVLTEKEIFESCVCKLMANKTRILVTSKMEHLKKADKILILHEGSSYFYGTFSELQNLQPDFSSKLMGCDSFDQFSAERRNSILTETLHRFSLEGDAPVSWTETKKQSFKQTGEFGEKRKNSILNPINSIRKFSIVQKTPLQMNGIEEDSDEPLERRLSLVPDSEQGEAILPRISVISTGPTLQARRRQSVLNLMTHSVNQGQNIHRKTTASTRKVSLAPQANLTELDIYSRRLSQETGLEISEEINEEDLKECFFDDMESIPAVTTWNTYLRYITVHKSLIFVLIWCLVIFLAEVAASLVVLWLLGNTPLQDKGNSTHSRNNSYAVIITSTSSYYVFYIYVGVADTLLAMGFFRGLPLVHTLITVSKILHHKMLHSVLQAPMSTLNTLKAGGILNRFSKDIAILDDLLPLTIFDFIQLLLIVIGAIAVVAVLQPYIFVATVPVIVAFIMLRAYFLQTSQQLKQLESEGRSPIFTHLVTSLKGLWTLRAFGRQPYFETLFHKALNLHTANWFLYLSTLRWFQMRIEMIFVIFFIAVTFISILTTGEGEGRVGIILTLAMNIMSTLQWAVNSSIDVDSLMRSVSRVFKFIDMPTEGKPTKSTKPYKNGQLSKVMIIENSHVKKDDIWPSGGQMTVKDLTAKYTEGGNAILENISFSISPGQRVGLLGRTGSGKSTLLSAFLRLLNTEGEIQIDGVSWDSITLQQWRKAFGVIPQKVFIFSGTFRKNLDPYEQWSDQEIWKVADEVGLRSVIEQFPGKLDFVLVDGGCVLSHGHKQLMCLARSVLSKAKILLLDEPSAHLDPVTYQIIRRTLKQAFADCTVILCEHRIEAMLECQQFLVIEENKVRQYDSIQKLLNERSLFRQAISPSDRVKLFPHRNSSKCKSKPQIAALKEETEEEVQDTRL

| SMILES | % Activity | EC50 [µM] |
| --- | --- | --- |
| CCC(C)C(C(=O)Nc1ncc(Cc2ccccc2C#N)s1)c1ccccc1 (centres unmarked) [compound 259] | ++ (“++” means between 25% to 100%) | < 10 |
| N#Cc1ccccc1Cc1cnc(NC(=O)C(c2ccccc2)C2CCCC2)s1 (centres unmarked) [compound 260] | ++ (“++” means between 25% to 100%) | < 10 |
| CC(C)C(C(=O)Nc1ncc(Cc2ccccc2C#N)s1)c1ccccc1 (centres unmarked) [compound 261] | ++ (“++” means between 25% to 100%) | < 10 |
| CCC(C(=O)Nc1ncc(C(=O)c2ccccc2Cl)s1)c1ccccc1 (centres unmarked) [compound 262] | ++ (“++” means between 25% to 100%) | 25 to 60 |
| CCC(C(=O)Nc1ncc(C(O)c2ccccc2Cl)s1)c1ccccc1 (centres unmarked) [compound 263] | ++ (“++” means between 25% to 100%) | < 10 |
| CCC(C(=O)Nc1nc2ccc(S(C)(=O)=O)cc2s1)c1ccccc1 (centres unmarked) [compound 264] | ++ (“++” means between 25% to 100%) | 25 to 60 |
| CCOc1ccc2nc(NC(=O)C(CC)c3ccccc3)sc2c1 (centres unmarked) [compound 265] | +++ (“+++” means >100%) | < 10 |
| CCC(C(=O)Nc1nc2ccc(OC)cc2s1)c1ccccc1 (centres unmarked) [compound 266] | ++ (“++” means between 25% to 100%) | < 10 |
| CCC(C(=O)Nc1nc2cc(C)c(C)cc2s1)c1ccccc1 (centres unmarked) [compound 267] | ++ (“++” means between 25% to 100%) | < 10 |
| CCC(C(=O)Nc1nc2cccc(C)c2s1)c1ccccc1 (centres unmarked) [compound 268] | ++ (“++” means between 25% to 100%) | < 10 |
| COC(=O)CC(C(=O)Nc1ncc(Cc2ccccc2Cl)s1)c1ccccc1 (centres unmarked) [compound 269] | ++ (“++” means between 25% to 100%) | < 10 |
| CCC(C(=O)Nc1ncc(Cc2ccccc2Cl)s1)c1ccc(OC)cc1 (centres unmarked) [compound 270] | ++ (“++” means between 25% to 100%) | < 10 |
| CC(CC(=O)Nc1ncc(Cc2ccccc2Cl)s1)c1ccccc1 (centres unmarked) [compound 271] | ++ (“++” means between 25% to 100%) | < 10 |
| CN(C)C(Cc1ccccc1)C(=O)Nc1ncc(Cc2ccccc2Cl)s1 (centres unmarked) [compound 272] | +++ (“+++” means >100%) | < 10 |
| CCC(C(=O)Nc1ncc(Cc2ccccc2OC)s1)c1ccc(OC)cc1 (centres unmarked) [compound 273] | ++ (“++” means between 25% to 100%) | < 10 |
| COc1ccccc1Cc1cnc(NC(=O)CC(C)c2ccccc2)s1 (centres unmarked) [compound 274] | ++ (“++” means between 25% to 100%) | 25 to 60 |

| SMILES | % Activity | EC50 [µM] |
| --- | --- | --- |
| COc1ccccc1Cc1cnc(NC(=O)C(Cc2ccccc2)N(C)C)s1 (centres unmarked) [compound 275] | ++ (“++” means between 25% to 100%) | 25 to 60 |
| CC(CC(=O)Nc1ncc(Cc2ccccc2C#N)s1)c1ccccc1 (centres unmarked) [compound 276] | ++ (“++” means between 25% to 100%) | 25 to 60 |
| CN(C)C(Cc1ccccc1)C(=O)Nc1ncc(Cc2ccccc2C#N)s1 (centres unmarked) [compound 277] | ++ (“++” means between 25% to 100%) | 25 to 60 |
| CCC(C(=O)Nc1ncc(Cc2ccccc2Cl)n1C)c1ccccc1 (centres unmarked) [compound 278] | ++ (“++” means between 25% to 100%) | < 10 |
| Cc1csc(NC(=O)C(c2ccccc2)c2ccccc2)n1 [compound 279] | ++ (“++” means between 25% to 100%) | 25 to 60 |
| CCOC(=O)c1csc(NC(=O)C(c2ccccc2)c2ccccc2)n1 [compound 280] | ++ (“++” means between 25% to 100%) | < 10 |
| CCOC(=O)Cc1csc(NC(=O)C(c2ccccc2)c2ccccc2)n1 [compound 281] | ++ (“++” means between 25% to 100%) | 10 to 25 |
| COc1ncccc1Cc1cnc(NC(=O)C(c2ccccc2)c2ccccc2)s1 [compound 282] | ++ (“++” means between 25% to 100%) | < 10 |
| CCC(C(=O)Nc1ncc(Cc2cccnc2OC)s1)c1ccccc1 (centres unmarked) [compound 283] | ++ (“++” means between 25% to 100%) | < 10 |
| CCC(C(=O)Nc1ncc(Cc2cccc(OC)c2)s1)c1ccccc1 (centres unmarked) [compound 284] | ++ (“++” means between 25% to 100%) | < 10 |
| CCC(C(=O)Nc1ncc(Cc2cc(F)ccc2OC)s1)c1ccccc1 (centres unmarked) [compound 285] | ++ (“++” means between 25% to 100%) | < 10 |
| CCC(C(=O)Nc1ncc(Cc2ccc(OC)cc2)s1)c1ccccc1 (centres unmarked) [compound 286] | ++ (“++” means between 25% to 100%) | < 10 |
| CCCc1nc(NC(=O)C(c2ccccc2)c2ccccc2)sc1C(=O)OCC [compound 287] | ++ (“++” means between 25% to 100%) | < 10 |
| CCCc1nc(NC(=O)C(CC)c2ccccc2)sc1C(=O)OCC (centres unmarked) [compound 288] | ++ (“++” means between 25% to 100%) | < 10 |
| CCC(C(=O)Nc1nc2c(s1)C(=O)CCC2)c1ccccc1 (centres unmarked) [compound 289] | ++ (“++” means between 25% to 100%) | 25 to 60 |
